Literature values in patent US5162573A, “Valproic and (E)-2-valproenoic acid derivatives, and pharmaceutical compositions therefrom” (Chiesi Farmaceutici S.p.A., priority 1986, dated 1992).

Columns and labels:
[1] = not given; remark: listed apart in the source
[2] = in comparison with valproic acid
[3] = oral administration of equimolecular doses, in comparison with valproic acid

CCCC(CCC)C(=O)O [valproic acid, 2-propyl-2-pentanoic acid]
teratogenic effects (in vivo): teratogenic effects | half life in man [1]: 9 to 10 h

CC/C=C(\CCC)C(=O)O [valproenoic acid, (E)-2-propyl-2-pentenoic acid]
anticonvulsivant activity, potency and duration of action [2]: a wide spectrum anticonvulsivant activity, a potency and a duration of action comparable to those of valproic acid | toxic effects (in comparison with valproic acid): remarkably reduced toxic effects | hepatic tolerability / hepatic reactions (in vivo): much better tolerated at hepatic level | teratogenic effects (in vivo): totally devoid of teratogenic effects | half life in man [1]: 12.5 h | hepatic concentration [3]: remarkably reduced hepatic concentration in comparison with valproic acid
